Measurements: ChEMBL document CHEMBL4308841, “Synthesis, in vitro antiproliferative activity, and kinase inhibitory effects of pyrazole-containing diarylureas and diarylamides” (Eur J Med Chem, 2018)

Key:
A549 = test: Growth inhibition of human A549/ATCC cells assessed as cell growth at 1 uM incubated for 48 hrs by sulforhodamine B assay relative to control; assay type: functional; conditions: A549, 48 h, read-out: Activity
NCI-H322M [1] = test: Growth inhibition of human NCI-H322M cells assessed as cell growth at 0.1 uM incubated for 48 hrs by sulforhodamine B assay relative to control; assay type: functional; conditions: read-out: Activity
OVCAR-4 = test: Growth inhibition of human OVCAR4 cells assessed as cell growth at 0.01 uM incubated for 48 hrs by sulforhodamine B assay relative to control; assay type: functional; conditions: OVCAR-4, 48 h, read-out: Activity
HCC 2998 [2] = test: Growth inhibition of human HCC2998 cells incubated for 48 hrs by sulforhodamine B assay; assay type: functional, cell-based; conditions: HCC 2998, 48 h
COLO 205 = test: Growth inhibition of human COLO205 cells assessed as cell growth at 0.01 uM incubated for 48 hrs by sulforhodamine B assay relative to control; assay type: functional; conditions: COLO 205, 48 h, read-out: Activity
SNB-75 = test: Growth inhibition of human SNB75 cells assessed as cell growth at 0.1 uM incubated for 48 hrs by sulforhodamine B assay relative to control; assay type: functional; conditions: SNB-75, 48 h, read-out: Activity
HT-29 [3] = test: Growth inhibition of human HT-29 cells assessed as cell growth at 1 uM incubated for 48 hrs by sulforhodamine B assay relative to control; assay type: functional; conditions: HT-29, 48 h, read-out: Activity
Hs-578T [4] = test: Growth inhibition of human Hs578T cells assessed as cell growth at 100 uM incubated for 48 hrs by sulforhodamine B assay relative to control; assay type: functional; conditions: read-out: Activity
SK-MEL-28 = test: Growth inhibition of human SK-MEL-28 cells assessed as cell growth at 1 uM incubated for 48 hrs by sulforhodamine B assay relative to control; assay type: functional; conditions: SK-MEL-28, 48 h, read-out: Activity
HCC 2998 [5] = test: Growth inhibition of human HCC2998 cells assessed as cell growth at 0.01 uM incubated for 48 hrs by sulforhodamine B assay relative to control; assay type: functional; conditions: HCC 2998, 48 h, read-out: Activity
RXF 393 = test: Growth inhibition of human RXF393 cells assessed as cell growth at 100 uM incubated for 48 hrs by sulforhodamine B assay relative to control; assay type: functional; conditions: RXF 393, 48 h, read-out: Activity
UACC-257 = test: Growth inhibition of human UACC257 cells assessed as cell growth at 1 uM incubated for 48 hrs by sulforhodamine B assay relative to control; assay type: functional; conditions: UACC-257, 48 h, read-out: Activity
OVCAR-5 = test: Growth inhibition of human OVCAR5 cells assessed as cell growth at 1 uM incubated for 48 hrs by sulforhodamine B assay relative to control; assay type: functional; conditions: OVCAR-5, 48 h, read-out: Activity
Hs-578T [6] = test: Growth inhibition of human Hs578T cells incubated for 48 hrs by sulforhodamine B assay; assay type: functional, cell-based
SNB-19 = test: Growth inhibition of human SNB19 cells incubated for 48 hrs by sulforhodamine B assay; assay type: functional, cell-based; conditions: SNB-19, 48 h
NCI-H322M [7] = test: Growth inhibition of human NCI-H322M cells assessed as cell growth at 1 uM incubated for 48 hrs by sulforhodamine B assay relative to control; assay type: functional; conditions: read-out: Activity
SN12C = test: Growth inhibition of human SN12C cells assessed as cell growth at 0.1 uM incubated for 48 hrs by sulforhodamine B assay relative to control; assay type: functional; conditions: read-out: Activity
SK-MEL-2 = test: Growth inhibition of human SK-MEL-2 cells assessed as cell growth at 0.01 uM incubated for 48 hrs by sulforhodamine B assay relative to control; assay type: functional; conditions: SK-MEL-2, 48 h, read-out: Activity
UO-31 = test: Growth inhibition of human UO31 cells assessed as cell growth at 100 uM incubated for 48 hrs by sulforhodamine B assay relative to control; assay type: functional; conditions: UO-31, 48 h, read-out: Activity
NCI/ADR-RES = test: Growth inhibition of human NCI/ADR-RES cells assessed as cell growth at 1 uM incubated for 48 hrs by sulforhodamine B assay relative to control; assay type: functional; conditions: read-out: Activity
MDA-MB-468 = test: Growth inhibition of human MDA-MB-468 cells assessed as cell growth at 100 uM incubated for 48 hrs by sulforhodamine B assay relative to control; assay type: functional; conditions: MDA-MB-468, 48 h, read-out: Activity
HOP-62 = test: Growth inhibition of human HOP62 cells assessed as cell growth at 0.01 uM incubated for 48 hrs by sulforhodamine B assay relative to control; assay type: functional; conditions: HOP-62, 48 h, read-out: Activity
NCI-H322M [8] = test: Growth inhibition of human NCI-H322M cells assessed as cell growth at 100 uM incubated for 48 hrs by sulforhodamine B assay relative to control; assay type: functional; conditions: read-out: Activity
T47D = test: Growth inhibition of human T47D cells assessed as cell growth at 0.1 uM incubated for 48 hrs by sulforhodamine B assay relative to control; assay type: functional; conditions: read-out: Activity
UACC-62 = test: Growth inhibition of human UACC62 cells incubated for 48 hrs by sulforhodamine B assay; assay type: functional, cell-based; conditions: UACC-62, 48 h
MDA-MB-435 = test: Growth inhibition of human MDA-MB-435 cells incubated for 48 hrs by sulforhodamine B assay; assay type: functional, cell-based; conditions: MDA-MB-435, 48 h
A498 = test: Growth inhibition of human A498 cells incubated for 48 hrs by sulforhodamine B assay; assay type: functional, cell-based; conditions: A498, 48 h
HT-29 [9] = test: Growth inhibition of human HT-29 cells assessed as cell growth at 100 uM incubated for 48 hrs by sulforhodamine B assay relative to control; assay type: functional; conditions: HT-29, 48 h, read-out: Activity
[10] = read-out: pLC50 (the source's name) (converted)
[11] = read-out: LC50 (the source's name)

## COc1cc(Cl)cc(-c2nn(-c3cccc(NC(=O)Nc4cc(C(F)(F)F)cc(C(F)(F)F)c4)c3)cc2-c2ccncc2)c1
A549
  growth at 1 µM: 15%
NCI-H322M [1]
  growth at 0.1 µM: 95%
OVCAR-4
  growth at 0.01 µM: 93%
HCC 2998 [2]
  IC50: 620 nM
HCC 2998 [2]; read-out: GI50
  GI50: 622 nM
HCC 2998 [2]; read-out: TGI
  TGI: 4950 nM
HCC 2998 [2]; read-out: pGI50 (converted)
  GI50: 617 nM
HCC 2998 [2]; [10]
  CC50: 42700 nM
HCC 2998 [2]; read-out: pTGI (converted)
  TGI: 5010 nM
COLO 205
  growth at 0.01 µM: 98%
SNB-75
  growth at 0.1 µM: 74%
HT-29 [3]
  growth at 1 µM: 23%
Hs-578T [4]
  growth at 100 µM: -25%
SK-MEL-28
  growth at 1 µM: 46%
HCC 2998 [5]
  growth at 0.01 µM: 95%
RXF 393
  growth at 100 µM: -92%
UACC-257
  growth at 1 µM: 23%
OVCAR-5
  growth at 1 µM: 59%
Hs-578T [6]
  IC50: 1400 nM
Hs-578T [6]; read-out: GI50
  GI50: 1400 nM
Hs-578T [6]; read-out: TGI
  TGI: 7260 nM
Hs-578T [6]; read-out: pGI50 (converted)
  GI50: 1450 nM
Hs-578T [6]; [10]
  CC50: > 100000 nM
Hs-578T [6]; read-out: pTGI (converted)
  TGI: 7240 nM
SNB-19
  IC50: 420 nM
SNB-19; read-out: GI50
  GI50: 420 nM
SNB-19; [11]
  CC50: > 100000 nM
SNB-19; read-out: TGI
  TGI: 11300 nM
SNB-19; read-out: pGI50 (converted)
  GI50: 417 nM
SNB-19; [10]
  CC50: > 100000 nM
SNB-19; read-out: pTGI (converted)
  TGI: 11200 nM
NCI-H322M [7]
  growth at 1 µM: 49%
SN12C
  growth at 0.1 µM: 97%
SK-MEL-2
  growth at 0.01 µM: 103%
UO-31
  growth at 100 µM: -82%
NCI/ADR-RES
  growth at 1 µM: 48%
MDA-MB-468
  growth at 100 µM: -40%
HOP-62
  growth at 0.01 µM: 93%
NCI-H322M [8]
  growth at 100 µM: -78%
T47D
  growth at 0.1 µM: 96%
UACC-62
  IC50: 360 nM
UACC-62; read-out: GI50
  GI50: 357 nM
UACC-62; [11]
  CC50: 53.2 nM
UACC-62; read-out: TGI
  TGI: 1500 nM
UACC-62; read-out: pGI50 (converted)
  GI50: 355 nM
UACC-62; [10]
  CC50: 5370 nM
UACC-62; read-out: pTGI (converted)
  TGI: 1510 nM
MDA-MB-435
  IC50: 430 nM
MDA-MB-435; read-out: GI50
  GI50: 425 nM
MDA-MB-435; read-out: LC50
  LC50: 11.5 nM
MDA-MB-435; read-out: TGI
  TGI: 2030 nM
MDA-MB-435; read-out: pGI50 (converted)
  GI50: 427 nM
MDA-MB-435; read-out: pLC50 (converted)
  LC50: 11700 nM
MDA-MB-435; read-out: pTGI (converted)
  TGI: 2040 nM
A498
  IC50: 390 nM
A498; read-out: GI50
  GI50: 350 nM
A498; [11]
  CC50: 33.4 nM
A498; read-out: TGI
  TGI: 3590 nM
A498; read-out: pGI50 (converted)
  GI50: 389 nM
A498; [10]
  CC50: 33100 nM
A498; read-out: pTGI (converted)
  TGI: 3630 nM
HT-29 [9]
  growth at 100 µM: -96%
